Measured values reported in the NIST ThermoML archive (doi:10.1021/je9006234).
Numbers after ± are expanded uncertainties.

Details: 298.15 K; 101.33 kPa; Liquid

mass density [kg/m3] | Compound
1216.68 ± 1.3 | c1ccc2[nH]ccc2c1 [1H-indole]
944.21 ± 0.23 | CN(C)C=O [dimethylformamide]
773.19 ± 0.32 | CCCCCCCCCCCCCCCC [hexadecane]
965.9 ± 2.9 | c1cc[nH]c1 [pyrrole]
1089.45 ± 0.31 | c1ccc2ncccc2c1 [quinoline]

Compound | mass density [kg/m3]
Nc1ccccc1 [aniline] | 1017.42 ± 0.19
c1ccncc1 [pyridine] | 978.25 ± 0.27
